According to patent publication US9861678B2, “Casein peptide for use in the treatment of uterine infections” (Mileutis Ltd., priority 2010, dated 2018):

Columns and labels:
[1] = test system: dairy cows with clinical postpartum metritis; test: Clinical study 1, low dose: casein hydrolysate vs antibiotics in post-partum bovine clinical metritis (safety and efficacy); assay type: in vivo; settings: for genital secretions (ranking): score 0-4 per Table 2
Protocol: The effects of bovine casein hydrolysate in comparison with antibiotic drugs, was studied in dairy cows suffering from acute puerperal metritis (Sheldon et al., ibid 2006).
The cows recruited for this study were lactating Holstein Friesian located in large dairy herd in Israel (longitude 34°40′E-35°30′E; latitude 30°30′N-33°01′N). The cows were milked 3 times a day. The herd used was free-stall barn with a size ranged from 300 to 350 milking cows.
Cows are enrolled to the study provided that their physical condition is complied with the inclusion criteria as follows: • Cows with clinical postpartum metritis, • Cows with non-twins delivery, • Cows were not administered with intrauterine or systemic reproductive hormone therapy during the last 4 weeks, • Cows with no diagnosed morbidities, which may be potentially influence the outcome of treatment in the judgment of the investigator, • The herd managers agreed not to administer any intrauterine or reproductive hormonal therapy before examination of cows for this trial.
In addition, cows were enrolled to the clinical study provided that they have none of the following characteristics (herein “exclusion criteria”): • Cows had abnormal internal genitalia (including adhesions) • Cows with diagnosis and or treatment of severe vaginitis, lameness, mastitis-ketosis and digestive disorders during the current post calving period or any other clinical disease requiring systemic treatment at enrollment, • Cows identified to be culled (not to be inseminated) after calving • Cows administrated with immunotherapy within 3 weeks prior to study entry, • Cows administrated with anti-inflammatory and/or anabolic therapies, either systemic or by feeding 2 weeks prior to study entry. • Cows which are suspected or with a diagnosis of retained fetal membranes at the time of the current calving. • Cows which are suspected or with a clinical evidence of acute puerperal metritis with a systemic effect • Cows which are indented to be removed for any reason from the farm in the current location.
Cows in a proper physical condition (as defined above in the inclusion criteria and the exclusion criteria), that were diagnosed with confirmed clinical metritis, as determined by any one of the following clinical criteria, were enrolled to this clinical study:
1) cows must be febrile (i.e., morning rectal temperature more than 39.4° C.) and/or
2) cows must have a flaccid, non-retractable uterus that is located in the abdomen, a cervical diameter >7.5 cm, and a watery, mucopurulent, or fetid vulvar discharge.
On day “0” (first day of the study), dairy heifers or primiparous or multiparous dairy cows from the same herd and within the same lactation and ages were randomly divided, using tables prepared in advance by the investigator, to receive one or other of the treatments. Within each table, cows were assigned to treatment in pairs, a cow for each group.
Case study Arm (“arm 1”)—450 mg of bovine casine hydrolysate (Batch Number B100) administered in a 150 ml solution until completion of the arm's sample size.
(§1) Control Arm (“arm 2”)—25 ml of Oxytetracycline dehydrate (200 mg/ml total of 5,000 mg) (Norbrook Laboratory, UK).
(§2) Treatment was initiated at day “0” and was administered to the cows through transcervical intrauterine infusion using a sterile uterine catheter.
Safety was determined by monitoring on days 0.3, 1, 2, 3, 7 and 14 post-treatment, the appearance of adverse events (as detailed below) or any sign of toxicity.
In addition, the overall general impression from each cow was assessed and ranked according to the description on Table 1.
Efficacy was assessed by measuring the rectal temperature; genital system morphology and the genital secretions at a first visit after the morning observation and milking, before the treatment, 6-8 hours after the treatment and then on days 1, 2, 3, 7 and 14 post treatment. In general, treatment success was assessed after a total of 14 days after treatment. […]

[2] = test system: dairy cows with clinical postpartum metritis; test: Clinical study 2, high dose: casein hydrolysate vs antibiotics in post-partum bovine clinical metritis (safety and efficacy); assay type: in vivo, lactating Israel Holstein Friesian cows
Protocol: The cows recruited for this study were lactating Israel Holstein Friesian located in a large dairy herd in Israel (longitude 34°40′E-35°30′E; latitude 30°30′N-33°01′N).
Cows enrollment to the study with respect to the physical conditions, inclusion criteria and exclusion criteria were as detailed above for clinical study-1 with respect to the overall physical condition and with respect to the diagnosis with clinical post partum metritis. In addition, cows randomization was as detailed above.
On day “0” (first day of the study) dairy heifers or primiparous or multiparous dairy cows from the same herd and with the same lactation and ages were randomly divided, using tables prepared in advance by the investigator, to receive one or other of the treatments. Within each table, cows were assigned to treatment in pairs, a cow for each group.
Case study Arm (“arm 1”)—1350 mg of bovine casein hydrolysate (Batch Number B100) administered in a 150 ml solution 3 times.
as §1, §2
Safety and efficacy criteria are as detailed above for clinical study 1 (Example 2)
The administrated veterinarian examined all cows and was in charge on the ranking of the genital secretions, from 1 to 4, based on the descriptions provided in Table 2 of clinical study 1 as well as the genital system morphology according to the description in Table 3 of clinical study 1 and the overall general impression from each cow according to the description on […].

Question: What does the source list for `CN(C)[C@@H]1C(O)=C(C(N)=O)C(=O)[C@@]2(O)C(O)=C3C(=O)c4c(O)cccc4[C@@](C)(O)[C@H]3[C@H](O)[C@@H]12` [Antibiotics, Oxytetracycline dehydrate]?
Answer: cow's fever (rectal temperature) ([1]; 6-8 h after treatment, casein hydrolysate 450 mg or oxytetracycline 5,000 mg intrauterine): 39.4 ± 0.66 °C; genital secretions (ranking) ([1]; 6-8 h after treatment): 3.0 ± 0.92; cow's fever (rectal temperature) ([1]; Before treatment (day = 0), casein hydrolysate 450 mg in 150 ml or oxytetracycline 5,000 mg, intrauterine infusion, 8 cows per arm): 38.8 ± 0.26 °C; genital secretions (ranking) ([1]; Before treatment (day = 0), casein hydrolysate 450 mg or oxytetracycline 5,000 mg intrauterine): 3.625 ± 0.517; cow's fever (rectal temperature) ([1]; Day 1 (22-32 h after treatment), casein hydrolysate 450 mg or oxytetracycline 5,000 mg intrauterine): 39.1 ± 0.27 °C; genital secretions (ranking) ([1]; Day 1 (22-32 h after treatment)): 2.12 ± 0.84; cow's fever (rectal temperature) ([1]; Day 2, casein hydrolysate 450 mg or oxytetracycline 5,000 mg intrauterine): 39.1 ± 0.47 °C; genital secretions (ranking) ([1]; Day 2): 2.0 ± 0.92; cow's fever (rectal temperature) ([1]; Day 3, casein hydrolysate 450 mg or oxytetracycline 5,000 mg intrauterine): 38.9 ± 0.37 °C; genital secretions (ranking) ([1]; Day 3): 2.0 ± 0.92; cow's fever (rectal temperature) ([1]; Day 7, casein hydrolysate 450 mg or oxytetracycline 5,000 mg intrauterine): 38.9 ± 0.18 °C; genital secretions (ranking) ([1]; Day 7): 1.5 ± 0.75; cow's fever (rectal temperature) ([1]; Day 14, casein hydrolysate 450 mg or oxytetracycline 5,000 mg intrauterine): 38.8 ± 0.41 °C; genital secretions (ranking) ([1]; Day 14): 1.5 ± 0.75; cow's fever (rectal temperature) ([2]; 6-8 h after treatment, casein hydrolysate 1350 mg or oxytetracycline 5,000 mg intrauterine): 39.1 °C; cow's fever (rectal temperature) ([2]; Before treatment (day = 0), casein hydrolysate 1350 mg (150 ml solution 3 times) or oxytetracycline 5,000 mg, intrauterine, 4 and 3 cows): 38.4 °C; cow's fever (rectal temperature) ([2]; Day 1 (22-32 h after treatment), casein hydrolysate 1350 mg or oxytetracycline 5,000 mg intrauterine): 38.6 °C; cow's fever (rectal temperature) ([2]; Day 2, casein hydrolysate 1350 mg or oxytetracycline 5,000 mg intrauterine): 38.4 °C; cow's fever (rectal temperature) ([2]; Day 3, casein hydrolysate 1350 mg or oxytetracycline 5,000 mg intrauterine): 38.9 °C; cow's fever (rectal temperature) ([2]; Day 7, casein hydrolysate 1350 mg or oxytetracycline 5,000 mg intrauterine): 38.3 °C; cow's fever (rectal temperature) ([2]; Day 14, casein hydrolysate 1350 mg or oxytetracycline 5,000 mg intrauterine): 38.7 °C
